A melting point compilation (Tetko et al.; mined from patent text by program, amines drawn as free bases though some values may be those of a salt)

Row | Structure (SMILES) | melting point
1 | O=C1c2ccccc2OS(=O)N1SC(Cl)(Cl)Cl (configuration not stated) | 65 to 67 °C
2 | Fc1cc(F)cc(Cn2cnnc2S)c1 | 129 to 130 °C
3 | CN(C)c1ccc(NC(=O)N(C[C@@H]2CCC[C@H](CN(CC(C)(C)C)C(=O)Nc3ccc(N(C)C)cc3)C2)CC(C)(C)C)cc1 | 171 to 173 °C
4 | COc1cc2ncc(C#N)c(Nc3ccc4sc(C)nc4c3)c2cc1OC | 118 to 120 °C
5 | COC(=O)NS(=O)(=O)c1ncccc1C(F)(F)F | 128 to 129 °C
6 | CC(C)(C)OC(=O)N[C@@H](CC1CCCCC1)[C@@H]1C[C@@H](C2(O)CCCCC2)C(=O)O1 | 133 to 134 °C
7 | CC1OC(Sc2ccccc2)C(OCc2ccccc2)C(OC(=O)c2ccccc2)C1OC(=O)c1ccccc1 (configuration not stated) | 98 to 100 °C
8 | CC(c1ccc(-c2ccccc2)o1)N(O)C(N)=O (configuration not stated) | 133 to 136 °C
9 | CC(C)CCCC(C)C1CC=C2C3=C(CCC21C)C1(C)CCC(C(=O)c2ccncc2)CC1CC3 (configuration not stated) | 129 to 131 °C
10 | COc1ccc(-c2nnc3c4ccccc4c(CNCCCC#N)nn23)cc1 | 117 to 119 °C
11 | CCOc1ccc(S(=O)(=O)N2CCN(C)CC2)cc1-c1nc2c([nH]1)c1nncn1c(=O)n2CC | 248 °C
12 | N#CC1CN1C(=S)NC(=O)c1ccccc1 (configuration not stated) | 135 to 140 °C
13 | CCc1ncnc(O)c1F | 112 to 114 °C
14 | CCCCCCCCCCCCCCCCC1=C(c2cn(C)c3ccccc23)C(=O)NC1=O | 112 to 114 °C
15 | Cc1oc(-c2ccccc2)nc1CCOc1cccc(-c2cccc(OC3(C(=O)O)CCC3)c2)c1 | 127 °C
16 | CCOc1cc(-c2nc(N)sc2CCC2CCCCC2)c(OC)cc1C | 96 to 97 °C
17 | COc1ccc(C(O)CN2c3nc(-c4ccncc4)cc(=O)n3CCC2c2ccccc2)cc1 (configuration not stated) | 150 to 152 °C
18 | NC(=O)NC[C@@H]1CCCc2cc(S(=O)(=O)c3cccc(F)c3)ccc21 | 155 to 156 °C
19 | CCCc1nc2c(N)nc3cc(OCc4cccc(Cl)c4)ccc3c2n1CC(C)C | 182 to 183 °C
20 | C[C@H](Nc1nc(NC=O)nc([C@@H](C)F)n1)C1CCCCC1 | 127 °C
21 | CN(CCCNC(=O)NCCSCc1csc(NC(=N)N)n1)CCC(c1ccccc1)c1ccccn1 (configuration not stated) | 95 to 98 °C
22 | NC(=O)c1ccc(F)c2c1CC(NCCCc1c[nH]c3c(Cl)cccc13)CO2 (configuration not stated) | 222 to 224 °C
23 | O=c1nc(-c2cccc(S(=O)(=O)CCCc3ccccc3)n2)sc2ccccc12 | 150 to 151 °C
24 | CCOC(=O)C1=C(C)Nc2cc[nH]c(=O)c2C1c1ccccc1F (configuration not stated) | 183 to 184 °C
25 | CCCN(CC(O)C(Cc1ccccc1)NC(=O)C(C)CS(C)(=O)=O)S(=O)(=O)c1ccc(OC)cc1 (configuration not stated) | 88 to 92 °C

Row | Structure (SMILES) | melting point
26 | CCOC(=O)CN(CC(=O)OCC)C(=O)c1cc(OCCCCCCCCCCCCOc2ccccc2)ccc1OCc1ccccc1 | 49 to 50 °C
27 | CCc1cccc(CC(=O)O)c1OCCCc1cn(-c2ccc(C(F)(F)F)cn2)nc1C(C)(C)C | 98 to 99 °C
28 | S=C(Nc1ccc(Cl)c(Cl)c1)NC1CCCCC1 | 159 to 162 °C
29 | CCOC(=O)c1cn(Cc2cn(-c3ccc(N4CC(CNC(=O)OC)OC4=O)cc3F)nn2)nc1N (configuration not stated) | 98 to 100 °C
30 | O=C(O)CCC(=O)N[C@@H](Cc1ccc(-c2ccccc2)cc1)C(=O)NCCCCNc1ncccn1 | 200 to 205 °C
31 | C[C@H]1[C@H](c2ccccc2)OC(c2cccc(Br)c2)N1C (some centres not stated) | 73 to 75 °C
32 | C[C@@H](Nc1ncnc2cc(OC3CCC3)c([N+](=O)[O-])cc12)c1ccccc1 | 108 to 110 °C
33 | CCCNC(=O)C1(O)CC(O)C(O)C(O)C1 (configuration not stated) | 132 to 133 °C
34 | CC(=O)NC1([N+](=O)[O-])C=C(C)C=CN1 (configuration not stated) | 146 to 149 °C
35 | Cc1sc2nc(N)[nH]c(=O)c2c1-c1ccc(F)cc1 | 360 to 362 °C
36 | Cc1c(-c2cc(F)cc(C(F)(F)F)c2)ccc(N)c1C#N | 96 to 97 °C
37 | NC(=O)N(CCCOc1ccc(C(=O)O)cc1)c1ccc(Cl)cc1 | 172 to 174 °C
38 | COc1ccccc1CN[C@H]1CCCN(CCCCCCCc2ccccc2)[C@H]1c1ccccc1 (relative stereo) | 67 to 77 °C
39 | COc1ccccc1N1CCc2c1c1cccc(C)c1[nH]c2=O | 193 to 195 °C
40 | CC(CCc1ccc(CC(=O)O)cc1)CC(=O)O (configuration not stated) | 100 to 102 °C
41 | CCOC(=O)N(CCN(C(=O)OCC)C1CCCCC1)C1CCCCC1 | 108 °C
42 | COc1ccc(COc2cccnc2NC(=N)Nc2ccccc2)cc1 | 141 to 143 °C
43 | CC(C)c1nc2c([nH]1)c(=O)[nH]c(=O)n2Cc1cccc(Cl)c1 | 319 to 321 °C
44 | COC(=O)CC1(C)CCc2cc(C#N)ccc2C1=O (configuration not stated) | 117 °C
45 | COc1cc(OC)cc(C(=O)Nc2ccc3ccc(Cl)nc3n2)c1 | 235 °C
46 | COC(=O)CC/C(C)=C/Cc1c(NC(=O)C(F)(F)F)c2c(c(C)c1OC)COC2=O | 107 to 109 °C
47 | CC(C)(C)OC(=O)Nc1cc(N2CCOCC2)c(C#Cc2ccccc2)cc1[N+](=O)[O-] | 190 to 191 °C
48 | CNCCCn1c(-c2ccc(Br)cc2)csc1=Nc1ccccc1 | 143 to 148 °C
49 | O=C(c1ccc2scnc(=O)c2c1)N1CCCC1 | 232 to 234 °C
50 | CNC(=O)c1cccc(NC(=O)Nc2ccccc2)c1 | 209 to 210 °C

Row | Structure (SMILES) | melting point
51 | CCCCCCCC1=CC(=O)NC1(O)CN (configuration not stated) | 176 °C
52 | CCOC(=O)C1CN(C(=O)C(C)(C)C)CCC1=O (configuration not stated) | 46 to 50 °C
53 | CCOC(=O)C1=C(C)Nc2nc(N)nc(N)c2C1c1cccnc1 (configuration not stated) | 224 °C
54 | Cn1c(-c2cc(O)c3c(c2)C(=O)c2cccc(O)c2C3=O)nc2ccccc21 | 266 to 267 °C
55 | C=C(C)C=COc1ccc(C(=O)C=Cc2ccc(OCC(=O)O)c(OC)c2)c(OCC(=O)O)c1 | > 200 °C
56 | COC(=O)Cc1cn(C(c2ccccc2)(c2ccccc2)c2ccccc2)cn1 | 122 to 125 °C
57 | CC(=O)Nc1ccc(NC(=O)OCc2ccccc2)c(O)c1 | 205 °C
58 | Clc1ccc(C2Cc3cnc4[nH]ncc4c3-c3ccccc32)cc1Cl (configuration not stated) | 76 to 78 °C
59 | NC(=O)c1ccc2ccccc2c1-c1c(P(=O)(c2ccccc2)c2ccccc2)ccc2ccccc12 | 122 °C
60 | O=C(Cc1ccc(F)cc1)c1ccc(F)cc1 | 91 to 93 °C
61 | Cc1cccc(C)c1C(=Nc1ccc(F)cc1)NC(=NC1CCCCC1)N1CCCCC1C (configuration not stated) | 167 to 168 °C
62 | COC(=O)C1=C(C)NC(C)=C(C(=O)OCC2COC3(CCCC3)O2)C1c1cccc([N+](=O)[O-])c1 (configuration not stated) | 58 to 67 °C
63 | Cn1c(-c2ccc(Br)cc2)cnc1[C@H](Cc1ccccn1)N(C=O)c1cc2cc(Cl)ccc2o1 | 185 to 188 °C
64 | COc1ccc(Oc2c(C)cc(N)cc2C)cc1C(C)C | 95 to 100 °C
65 | CC(C)N(C(=O)c1cccc2c1CCc1cc(F)ccc1S2)C(C)C | 149 to 150 °C
66 | Cc1cc(O)c(S(C)(=O)=O)cc1C(=O)N=C(N)N | > 260 °C
67 | COC(=O)/C=C/n1cnc2c(OC)cccc2c1=O | 203 to 208 °C
68 | COC(=O)Cc1cc(-c2ccccc2)ccc1OCc1ccc(OCc2nc(-c3ccccc3)oc2C)cc1 | 111 to 112 °C
69 | CCOC(=O)[C@H](Cc1ccc(C(F)(F)F)cc1)[C@@H](O)c1ccncc1 (racemic) | 78 to 80 °C
70 | COc1ccc(-c2nc(=O)c3ccccc3o2)cc1 | 175 to 178 °C
71 | CC1Cc2c(NN)c(Cl)cc(Cl)c2O1 (configuration not stated) | 59 to 64 °C
72 | COc1ccc(-c2ccccc2[N+](=O)[O-])cc1 | 55 to 56 °C
73 | CCOC(=O)[C@H](CCc1ccccc1)N[C@@H](C)C(=O)N1N=C(c2ccccc2)S[C@H]1C(=O)O | 180 to 182 °C
74 | CCc1c2c(cc3c(=O)cc(C(=O)O)oc13)CCCC2 | 269 to 271 °C
75 | CCCCn1c(=O)c2c(nc(/C=C/c3cc(OC)c(OC)c(OC)c3)n2C)n(CCCC)c1=O | 137 °C

Row | Structure (SMILES) | melting point
76 | COC(=O)c1ccc2oc(CCCc3cc4cc(C(=O)OC)ccc4o3)cc2c1 | 87 to 88 °C
77 | CN1C(=O)N(C[C@H](C(=O)O)[C@@H](CC2CCCC2)C(=O)N2CCCCC2)C(=O)C1(C)C | 111 to 114 °C
78 | O=C(NCc1ccc(Cl)cc1)c1cn2c3c(cc(CN4CCOCC4)cc3c1=O)CN(Cc1ccccc1)C2 | 203 to 205 °C
79 | CCCC(CCC)C(=O)N[C@H](C(=O)N[C@H](CO)Cc1c[nH]c2ccccc12)[C@@H](C)CC | 190 to 191 °C
80 | CCOC(=O)C1=CC(=O)C2(C(=O)c3ccc(Cl)cc3)OC2O1 (configuration not stated) | 100 °C
81 | Cc1cccc(Nc2nncc3ccccc23)c1 | 176 to 177 °C
82 | Cc1c(O[Si](C)(C)C(C)(C)C)cc(O[Si](C)(C)C(C)(C)C)cc1C(=O)O[Si](C)(C)C(C)(C)C | 64 °C
83 | C=CCc1cc2c(c(CC=C)c1O)S(=O)CN2CC=C (configuration not stated) | 110 to 111 °C
84 | CNC(=O)Oc1ccc2c(ccn2Cc2ccncc2)c1 | 170 °C
85 | CN1C(=O)CCc2c1ccc(Sc1cccc(C3(C)CC(O)CCO3)c1)c2F (configuration not stated) | 141 to 142 °C
86 | COc1ccc(F)cc1C(C)(C)CC(O)(Cn1ncc(=O)c2ccccc21)C(F)(F)F (configuration not stated) | 122 to 123 °C
87 | CSC1C(O)C(CO)OC1n1ccc(N)nc1=O (configuration not stated) | 201 °C
88 | C=Cc1cc(NC(=O)N2CCN(c3cc(F)cc(F)c3)CC2)c(OC)nc1C | 160 to 161 °C
89 | Cc1nc(C(N)=O)c2n1-c1ccc([N+](=O)[O-])cc1C(c1ccccc1Cl)=NC2 | > 300 °C
90 | CC1=C2C3C(C)CC4=CC(=O)CCC4C3CCC2(C)C(O)C1 (configuration not stated) | 164 to 167 °C
91 | N#Cc1ccc(-c2c3c(cc4ccc(O)cc24)-c2ccc(O)cc2CO3)cc1 | > 250 °C
92 | O=S(=O)(c1ccccc1)c1ccc(Oc2ccc(Cl)c(Cl)c2)cc1 | 145 to 146 °C
93 | COc1ccc(C(=O)Nc2cccc3c2CCN(C)C3)cc1 | 170 to 172 °C
94 | COc1cccc(CNC(=O)c2cc3c(=O)n(CCOc4ccc(Cl)cc4)c(=O)n(C)c3s2)c1 | 109 to 112 °C
95 | C=C(COc1ccccc1C=O)C(=O)OC | 50 to 52 °C
96 | CCOCc1nc2c(N)nc3cc(OCc4csc(C)n4)ccc3c2n1CC(C)(C)O | 200 to 201 °C
97 | COC(=O)c1cc(-n2c(OC)nc(C(F)(F)C(F)(F)F)cc2=O)c(F)cc1Cl | 80 to 82 °C
